EP0189142A2, “Arylalkoxyphenyl-allylic alcohols as agents for the treatment of hypersensitive ailments” (USV PHARMACEUTICAL CORPORATION, priority 1985, dated 1986)

What was measured:
Rat PMN 5-lipoxygenase = target: T1, Rat PMN 5-lipoxygenase (Rattus norvegicus, UniProt P12527); assay: Protocol for detecting inhibitors of the lipoxygenase pathway (5-HETE formation in rat neutrophils); assay type: cell-based; conditions: suspension of rat neutrophils, 3 minutes at 30°C with [14C]-arachidonic acid and Calcium Ionophore A23187; net 5-HETE produced; read-out: Rat PMN 5-lipoxygenase inhibition (I50)
T1 construct: endogenous in cells; host or cells: rat neutrophils (PMN)
T1 sequence (P12527 1-673): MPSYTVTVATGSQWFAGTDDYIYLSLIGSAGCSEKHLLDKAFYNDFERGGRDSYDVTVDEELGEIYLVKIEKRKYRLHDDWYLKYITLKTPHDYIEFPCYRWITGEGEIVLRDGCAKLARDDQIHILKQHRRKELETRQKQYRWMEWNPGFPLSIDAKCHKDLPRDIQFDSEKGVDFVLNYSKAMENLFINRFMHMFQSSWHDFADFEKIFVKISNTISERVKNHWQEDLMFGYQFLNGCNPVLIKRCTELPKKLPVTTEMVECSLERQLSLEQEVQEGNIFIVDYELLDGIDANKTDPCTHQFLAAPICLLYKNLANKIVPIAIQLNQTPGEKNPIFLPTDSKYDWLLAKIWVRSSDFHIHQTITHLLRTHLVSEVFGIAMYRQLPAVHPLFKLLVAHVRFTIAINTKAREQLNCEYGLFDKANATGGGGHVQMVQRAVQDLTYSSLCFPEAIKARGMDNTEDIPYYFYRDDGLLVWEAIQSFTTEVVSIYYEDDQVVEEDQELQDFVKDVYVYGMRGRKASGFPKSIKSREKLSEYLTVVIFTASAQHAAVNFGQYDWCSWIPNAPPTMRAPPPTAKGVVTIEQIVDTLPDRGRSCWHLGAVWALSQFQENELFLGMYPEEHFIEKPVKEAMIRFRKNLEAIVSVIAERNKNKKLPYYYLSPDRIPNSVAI
Method: The following protocol describes an assay to detect inhibitors of the lipoxygenase pathway. Such inhibitors are believed to be capable of modulating the biosynthesis of the leukotrienes, a property believed to be useful in treating asthma and inflammatory disease states.
Protocol for Detecting Inhibitors of the Lipoxygenase Pathway
A suspension of rat neutrophils in buffer is incubated for 3 minutes at 30°C with [^14]-arachidonic acid (AA) and Calcium Ionophore A23'187. Citric acid (2M) is used to quench the reaction. Following the addition of a trace amount of (^3H)-5-HETE together with an excess of unlabeled 5-HETE to each tube, the mixture is extracted with chloroform/methanol. The organic layer is washed with dilute acid and an aliquot is transferred to glass tubes and dried. The residue is dissolved in a small volume of chloroform and an aliquot is spotted on silica gel TLC sheets, which are developed with an ethyl acetate/isooctane/water/acetic acid solvent system. The 5-HETE spots are visualized with iodine, cut out and placed in scintillation vials for counting. After adjusting for the extraction efficiency, the amount (pmole) of [^14C]-5-HETE in each of the tubes is quantitated by substracting the net pmoles of 5-HETE in the tubes containing buffer alone (blank) from the pmoles of 5-HETE in the tubes containing […]. The ability of the test compounds to modulate the activity of this enzyme is determined by a decrease or increase in the net amount of 5-HETE produced.

Phospholipase A2 (PLA2) = target: T2, Phospholipase A2 (PLA2) (Rattus norvegicus, UniProt P14423); assay: In vitro assay for inhibitors of Phospholipase A2 (PLA2); assay type: biochemical; conditions: PLA2 from aggregated purified rat platelets; 14C-phosphatidylcholine substrate; pH 7.2, 37°C, 30 minutes; read-out: (PLA2) Phospholipase A2 inhibition (I50)
T2 construct: obtained by aggregation of purified rat platelets; from tissue; host or cells: rat platelets (material obtained on aggregation)
T2 sequence (P14423 22-146): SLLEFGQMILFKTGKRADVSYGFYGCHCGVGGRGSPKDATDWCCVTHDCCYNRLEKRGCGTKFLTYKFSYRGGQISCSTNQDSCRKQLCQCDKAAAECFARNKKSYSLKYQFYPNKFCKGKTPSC
Description: (§1) Two assays have been developed to test the ability of the invented compounds on the activity of the phospholipases. In one protocol, a procedure is described for testing the inhibitory effects of these compounds on Phospholipase C (PLC), while the other protocol describes a means for testing the inhibitory effect of these compounds on Phospholipase A2 (P^LA2).
Protocol for In Vitro Assay for Inhibitors of Phospholipase A2 Assayed at oH 7.0 (PLA2)
The PLA2 employed in this screen is obtained by aggregation of purified rat platelets. In the enzyme assay phosphatidylcholine having ^14C-labeled palmitate residues at Rl and R2 is employed as substrate. PLA2 acts by cleaving the R2 fatty acid ester bond yielding free fatty acid and lysophosphatidyl choline as follows: [drawing 22]
Following completion of the reaction, the assay medium is acidified and extracted with hexane, which takes up unreacted substrate and free fatty acid product. The hexane extract is passed over a short silica gel column which retains 99% of the phosphatidyl choline. The ^14C-labeled palmitic acid is not retained (90% recovery in eluate) and is collected directly in scintillation counting vials. The released palmitic acid is conveniently quantitated by liquid scintillation spectrometry.
The compounds were tested at 100 uM in a buffer containing 0.3 mM unlabeled phosphatidylcholine (PC), 20-30,000 cpm of ^14C [PC], 100 mM NaCl, 1 mM CaCl2 and 50 mM Tris-HCL adjusted to pH 7.2 with 1 N NaOH. […] The reaction was initiated by addition of the enzyme and it was terminated 30 minutes later by the addition of 100 ml of 1 N HCL.
Following acidification, the complex was extracted with 2 ml of 2-propanol and 2 ml of hexane, vortexed, and allowed to stand until the phases separated. Free fatty acids (FFA) and some unreacted substrate were taken up in the isopropanol-saturated hexane. The hexane phase of the extraction mixture was transferred to a short silica gel column which retained unreacted PC but not the FFA. The column effluent was collected directly in scintillation vials. The columns were washed once with an additional 2 ml of hexane. The radiolabeled FFA were ^quantitated by liquid scintillation spectrometry.

Phospholipase C (PLC) = assay: In vitro assay for inhibitors of Phospholipase C (PLC); assay type: biochemical; conditions: PLC from aggregated purified rat platelets (CaCl2, ADP); 3H-phosphatidylinositol substrate; pH 9.0, 37°C, 10 minutes; read-out: (PLC) Phospholipase C inhibition (I50)
Description: as §1
Protocol for In Vitro Assay for Inhibitors of
The PLC employed in this screen is obtained by aggregation of purified rat platelets in the presence of CaCl2 and ADP. In the enzyme assay, phosphatidylinositol having ^3H-labeled arachidonate residues at R2 is employed as substrate. PLC acts by cleaving the phosphate ester bond yielding diglyceride as follows: [drawing 21] ^3H-Phosphatidylinosit-tol ^3H-diglyceride Inositol (cont.)
Following completion of the reaction, the assay medium is acidified and extracted with hexane which takes up unreacted substrate and diglvceride. The hexane extract is passed over a short silica gel column which retains 99% of the phosphatidylinositol. […] The diglyceride is conveniently quantitated by liquid scintillation spectrometry. […]
Following acidification, the samples were extracted with 2 ml of isopropyl alcohol and 2 ml of hexane, vortexed and allowed to stand until the phrases separate. […] The radiolabeled diglycerides were quantitated by liquid scintillation spectrometry.

CC(O)C=Cc1ccc(OCc2ccccc2)cc1 [Compound 21, 4-(D-BenzyloxyDhenyl)-3-buten-2-ol]
IC50 (Rat PMN 5-lipoxygenase): 1.5 µM | IC50 (Phospholipase A2 (PLA2)): 120 µM

CC(O)C=Cc1ccc(OCc2ccccc2)cc1OCc1ccccc1 (stereo not drawn) [Compound 22]
IC50 (Rat PMN 5-lipoxygenase): 1 µM | IC50 (Phospholipase A2 (PLA2)): 90 µM

CCCCCC(O)C=Cc1ccc(OCc2ccccc2)cc1OCc1ccccc1 (stereo not drawn) [Compound 23]
IC50 (Rat PMN 5-lipoxygenase): 10 µM

CC(C)(C)CC(O)C=Cc1ccc(OCc2ccccc2)cc1OCc1ccccc1 (stereo not drawn) [Compound 24]
IC50 (Rat PMN 5-lipoxygenase): 0.3 µM | IC50 (Phospholipase A2 (PLA2)): 100 µM

CC(C)(C)C(O)C=Cc1ccc(OCc2ccccc2)cc1OCc1ccccc1 (stereo not drawn) [Compound 25]
IC50 (Rat PMN 5-lipoxygenase): 1.1 µM | IC50 (Phospholipase A2 (PLA2)): 80 µM

CC(O)C=Cc1ccc(OCc2ccccc2)c(OCc2ccccc2)c1 (stereo not drawn) [Compound 28]
IC50 (Rat PMN 5-lipoxygenase): 2 µM

CC(C)(C)C(O)C=Cc1ccc(OCc2ccccc2)c(OCc2ccccc2)c1 (stereo not drawn) [Compound 29]
IC50 (Rat PMN 5-lipoxygenase): 2.3 µM

CCCCCC(O)C=CC=Cc1ccc(OCc2ccccc2)cc1 (stereo not drawn) [Compound 32]
IC50 (Rat PMN 5-lipoxygenase): 7 µM

CC(C)(C)C(O)C=CC=Cc1ccc(OCc2ccccc2)cc1 (stereo not drawn) [Compound 34]
IC50 (Rat PMN 5-lipoxygenase): 4.5 µM

CN(C)CCC(O)C=Cc1ccc(OCc2ccccc2)cc1 (stereo not drawn) [Compound 37]
IC50 (Phospholipase C (PLC)): 24 µM

CC(O)C=Cc1ccc(OC(c2ccccc2)c2ccccc2)cc1 (stereo not drawn) [Compound 39]
IC50 (Rat PMN 5-lipoxygenase): 3.5 µM | IC50 (Phospholipase A2 (PLA2)): 31 µM

CC1CCCC(=Cc2ccc(OCc3ccccc3)cc2)C1O (stereo not drawn) [Compound 40]
IC50 (Phospholipase A2 (PLA2)): 170 µM

OCC=Cc1ccc(OCc2ccccc2)cc1OCc1ccccc1 [Compound 42]
IC50 (Rat PMN 5-lipoxygenase): 1.4 µM
